Assay results taken from US8822413B2, “Bifunctional hormone having alpha-MSH activity and natriuretic peptide activity and uses thereof” (Theratechnologies Inc., priority 2007, dated 2014).
Bridge positions count the residues as written; N and C are the ends. Square brackets hold non-standard residues; d marks the D form. Peptide text beside a SMILES is read from it.

Columns and labels:
normal men = settings: infusion in normal men; cited from earlier work
ANP receptor = target: T1, ANP receptor (Sus scrofa, UniProt F1SFW3); test: cGMP production in ANP receptor-expressing LLC-PK1 cells; type: cell-based; settings: 30 min stimulation, 10^-6M through 10^-12M, NR = No response detected
T1 construct: ANP receptor-expressing LLC-PK1 cells; endogenous in cells; host or cells: LLC-PK1 cells
T1 sequence (F1SFW3 29-1057): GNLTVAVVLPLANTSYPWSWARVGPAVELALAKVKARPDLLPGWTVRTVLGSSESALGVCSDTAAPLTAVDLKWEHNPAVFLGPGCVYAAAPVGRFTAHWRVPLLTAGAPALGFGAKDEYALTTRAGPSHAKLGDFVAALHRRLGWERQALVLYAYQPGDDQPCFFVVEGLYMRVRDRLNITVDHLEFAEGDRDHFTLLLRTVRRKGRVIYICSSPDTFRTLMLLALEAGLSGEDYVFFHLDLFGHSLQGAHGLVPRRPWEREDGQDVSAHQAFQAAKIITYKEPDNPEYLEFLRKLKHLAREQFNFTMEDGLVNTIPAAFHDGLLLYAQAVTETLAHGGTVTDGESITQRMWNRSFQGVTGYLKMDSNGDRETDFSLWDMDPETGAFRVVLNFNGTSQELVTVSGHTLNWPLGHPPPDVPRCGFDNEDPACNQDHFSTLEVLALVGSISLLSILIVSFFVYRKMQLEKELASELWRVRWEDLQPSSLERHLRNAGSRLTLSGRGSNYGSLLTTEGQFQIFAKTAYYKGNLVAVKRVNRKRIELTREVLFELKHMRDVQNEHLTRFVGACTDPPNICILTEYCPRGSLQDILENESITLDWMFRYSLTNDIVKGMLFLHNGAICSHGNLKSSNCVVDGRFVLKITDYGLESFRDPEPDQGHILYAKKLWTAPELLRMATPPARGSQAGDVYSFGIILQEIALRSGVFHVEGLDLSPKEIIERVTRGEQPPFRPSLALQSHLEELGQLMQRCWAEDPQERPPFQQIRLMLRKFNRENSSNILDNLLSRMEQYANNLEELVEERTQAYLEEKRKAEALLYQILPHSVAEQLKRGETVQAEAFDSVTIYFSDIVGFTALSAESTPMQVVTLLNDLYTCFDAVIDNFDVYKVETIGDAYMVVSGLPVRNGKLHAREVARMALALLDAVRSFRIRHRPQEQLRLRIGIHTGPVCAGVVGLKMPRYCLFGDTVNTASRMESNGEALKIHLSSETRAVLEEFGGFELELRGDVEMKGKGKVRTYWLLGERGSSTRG
Description: The bifunctional hormone was tested on ANP receptor-expressing LLC-PK1 cells and on MCR1 receptor-expressing B16-F1 cells. Both cell types were cultured 24 hours before the stimulation, in 96-well plates, at a concentration of 1.0×10^5 cells/ml. Before stimulation, cells were starved 2 hours in DPBS only and incubated 10 min in assay buffer (DPBS containing 20 mM HEPES, 0.1% BSA and 500 μM IBMX). The dose response curve of the bifunctional hormone was done for 30 minutes with concentrations of 10^−6M through 10^−12M. Supernatant was collected and cAMP (B16-F1) or cGMP (LLC-PK1) was measured with a radiolabeled kit from GE Healthcare Company.

Compound | increase in sodium excretion (normal men) [fold] | reduction in plasma renin, angiotensin II and aldosterone secretion (normal men) [%] | EC50 (ANP receptor) [nM]
S-P-K-M-V-Q-G-S-G-[C-P-G-R-K-M-D-R-I-S-S-S-S-G-L-G-C]-K-V-L-R-R-H [BNP] | 2 | 50 | –
CC[C@H](C)[C@@H]1NC(=O)[C@H](CCCNC(=N)N)NC(=O)[C@H](CC(=O)O)NC(=O)[C@H](CCSC)NC(=O)[C@H](CCCNC(=N)N)NC(=O)CNC(=O)CNC(=O)[C@H](Cc2ccccc2)NC(=O)[C@@H](NC(=O)[C@H](CO)NC(=O)[C@H](CO)NC(=O)[C@H](CCCNC(=N)N)NC(=O)[C@H](CCCNC(=N)N)NC(=O)CNC(=O)[C@H](Cc2c[nH]c3ccccc23)NC(=O)[C@H](CCCNC(=N)N)NC(=O)[C@H](Cc2ccccc2)NC(=O)[C@H](Cc2c[nH]cn2)NC(C)=O)CSSC[C@@H](C(=O)N[C@@H](CC(N)=O)C(=O)N[C@@H](CO)C(=O)N[C@@H](Cc2ccccc2)C(=O)N[C@@H](CCCNC(=N)N)C(=O)N[C@@H](Cc2ccc(O)cc2)C(N)=O)NC(=O)CNC(=O)[C@H](CC(C)C)NC(=O)CNC(=O)[C@H](CO)NC(=O)[C@H](CCC(N)=O)NC(=O)[C@H](C)NC(=O)CNC1=O [SEQ ID NO: 38, Ac-H-F-R-W-G-R-R-S-S-[C-F-G-G-R-M-D-R-I-G-A-Q-S-G-L-G-C]-N-S-F-R-Y-NH2] (Ac-HFRWGRRSSCFGGRMDRIGAQSGLGCNSFRY-NH2; disulfide 10-26) | – | – | 6.9
CC[C@H](C)[C@@H]1NC(=O)[C@H](CCCNC(=N)N)NC(=O)[C@H](CC(=O)O)NC(=O)[C@H](CCSC)NC(=O)[C@H](CCCNC(=N)N)NC(=O)CNC(=O)CNC(=O)[C@H](Cc2ccccc2)NC(=O)[C@@H](NC(=O)[C@H](CO)NC(=O)[C@H](CO)NC(=O)[C@H](CCCNC(=N)N)NC(=O)[C@H](CCCNC(=N)N)NC(=O)CNC(=O)[C@H](Cc2c[nH]c3ccccc23)NC(=O)[C@H](CCCNC(=N)N)NC(=O)[C@@H](Cc2ccccc2)NC(=O)[C@H](Cc2c[nH]cn2)NC(=O)[C@H](CCC(=O)O)NC(C)=O)CSSC[C@@H](C(=O)N[C@@H](CC(N)=O)C(=O)N[C@@H](CO)C(=O)N[C@@H](Cc2ccccc2)C(=O)N[C@@H](CCCNC(=N)N)C(=O)N[C@@H](Cc2ccc(O)cc2)C(N)=O)NC(=O)CNC(=O)[C@H](CC(C)C)NC(=O)CNC(=O)[C@H](CO)NC(=O)[C@H](CCC(N)=O)NC(=O)[C@H](C)NC(=O)CNC1=O [SEQ ID NO: 42, Ac-E-H-f-R-W-G-R-R-S-S-[C-F-G-G-R-M-D-R-I-G-A-Q-S-G-L-G-C]-N-S-F-R-Y-NH2] (Ac-EH[dF]RWGRRSSCFGGRMDRIGAQSGLGCNSFRY-NH2; disulfide 11-27) | – | – | 502
CC[C@H](C)[C@@H]1NC(=O)[C@H](CCCNC(=N)N)NC(=O)[C@H](CC(=O)O)NC(=O)[C@H](CCSC)NC(=O)[C@H](CCCNC(=N)N)NC(=O)CNC(=O)CNC(=O)[C@H](Cc2ccccc2)NC(=O)[C@@H](NC(=O)[C@H](CCSC)NC(=O)[C@@H]2CCCN2C(=O)[C@H](CCCCN)NC(=O)CNC(=O)[C@H](Cc2c[nH]c3ccccc23)NC(=O)[C@H](CCCNC(=N)N)NC(=O)[C@H](Cc2c[nH]cn2)NC(C)=O)CSSC[C@@H](C(=O)N[C@@H](CC(N)=O)C(=O)N[C@@H](CO)C(=O)N[C@@H](Cc2ccccc2)C(=O)N[C@@H](CCCNC(=N)N)C(=O)N[C@@H](Cc2ccc(O)cc2)C(N)=O)NC(=O)CNC(=O)[C@H](CC(C)C)NC(=O)CNC(=O)[C@H](CO)NC(=O)[C@H](CCC(N)=O)NC(=O)[C@H](C)NC(=O)CNC1=O [SEQ ID NO: 43, Ac-H-R-W-G-K-P-M-[C-F-G-G-R-M-D-R-I-G-A-Q-S-G-L-G-C]-N-S-F-R-Y-NH2] (Ac-HRWGKPMCFGGRMDRIGAQSGLGCNSFRY-NH2; disulfide 8-24) | – | – | 86.8
